The values that follow come from patent US20050215551A1, “1-[2H-1-benzopyran-2-one-8-yl]- piperazine derivatives for the treatment of movement disorders” (SOLVAY PHARMACEUTICALS B.V., priority 2004, published 2005).

“Also recorded” adds a separate entry of the source. Read-outs that look alike come from different tables or passages of the source.

The test system of series [1] is DBA/2 mice. Put plainly: Anticonvulsant activity: audiogenic seizures in DBA/2 mice. The series is classed as in vivo. The conditions noted are these: for effect on tonic phase of audiogenic seizures / effect on clonic phase of audiogenic seizures / effect on tonic and clonic phase of audiogenic seizures: 30 min after i.p. administration; for ED50: Mus musculus, ip, 0.5 h, 30 minutes after drug administration; for behavioural changes: all dosages tested. The source says:
DBA/2 mice weighing 6-12 g (22-26 days old; either sex, Harlan Italy Correzzana, Milano, Italy) are housed in groups of 8-10 under a 12-h light/dark cycle (lights on at 7:00 a.m.) with food and water available ad libitum. The experimental protocol is approved by University of Catanzaro Ethical Committee. All procedures are in compliance with the Nationals Institutes of Health Guide for Care and Use of Laboratory Animals (Publication No. 85-23, revised 1985) and European Communities Council Directive of 24 Nov. 1986 (86/609 EEC).
The experiments are performed according to the method previously described by De Sarro et al. (1984), Eur. J. Pharmacol., 104, 55-60. Compounds of the invention or vehicle (controls) are given intraperitoneally (i.p.) and orally (p.o.) as freshly sonicated solutions in methylcellulose 1%. For the […]; pretreatment time at 30 and 60 min., For oral treatment, all animals are pretreated either at 30 or 60 min using the compounds of the invention at doses of 0.1, 0.3, 3, 6 and 10 mg/kg p.o. At least 10 mice per dose are used. After pretreatment time, each mouse is placed under a hemispheric perspex dome (58 cm in diameter) and 1 min is allowed for habituation and assessment of locomotor activity. Animals are challenged with a 12-16 kHz sinusoidal tone at 109 dB. Seizure response is assessed by two independent observers. The sound evoked behaviour is coded using the following scale: 0=no response, 1=wild running, 2=clonus, 3=tonic flexor and/or extensor; 4=respiratory arrest, on the basis of the concordant opinion of the observers. […] The maximum response is recorded for each animal. Rectal temperature is recorded immediately prior to auditory testing using an Elektrolaboratoriet thermometer type T.E.3. Behavioral changes are observed during the period between drug administration and auditory testing. In these experiments separate vehicle-treated and drug-treated groups are used at each pretreatment time (15 min-60 min). Percentage of mice showing wild running, clonic or tonic phase and the duration of anticonvulsant activity are compared to control group and statistically analyzed.
Statistical comparison between groups of control and drug-treated DBA/2 mice is made using Fisher's exact probability test (incidence of the seizure phases). The percentage incidence of each phase of the audiogenic seizure is determined for each drug. These values are plotted against the corresponding doses by a computer construction of the dose-effect curves for calculation of ED50 (with 95% confidence limits). The ED50 values for each compound are calculated using a computer program of the method of Litchfield and Wilcoxon (1949). At least 32 animals are used to calculate each ED50 value.
For systemic injections and oral administrations, all compounds are given intraperitoneally (0.1 ml/10 g of body weight of the mouse) as a freshly prepared solution in methylcellulose 1%. In order to avoid the light sensitivity, weighing and handling are carried out under sodium vapor lamps and the substances are protected from light during the experiments.

Series [2] concerns DBA/2 mice. Put plainly: Interaction studies in DBA/2 mice: Compound 1 + vehicle, sumatriptan or SB 258741 (audiogenic seizures). The series is classed as in vivo. The conditions noted are these: pre-treatment 3 mg/kg, i.p.; for effect of pre-treatment on the anti-epileptic activity (dose-response curve) of Compound 1: 5 min before Compound 1. The procedure: The experiments are performed according to the method previously described by De Sarro et al. (1984), Eur. J. Pharmacol., 104, 55-60. Compounds of the invention or vehicle (controls) are given intraperitoneally (i.p.) and orally (p.o.) as freshly sonicated solutions in methylcellulose 1%. For the i.p. treatment compounds of the invention are given at doses of 0.1, 0.3, 3, 10, 15, 20 and 30 mg/kg; pretreatment time at 30 and 60 min., For oral treatment, all animals are pretreated either at 30 or 60 min using the compounds of the invention at doses of 0.1, 0.3, 3, 6 and 10 mg/kg p.o. At least 10 mice per dose are used. After pretreatment time, each mouse is placed under a hemispheric perspex dome (58 cm in diameter) and 1 min is allowed for habituation and assessment of locomotor activity. Animals are challenged with a 12-16 kHz sinusoidal tone at 109 dB. Seizure response is assessed by two independent observers. The sound evoked behaviour is coded using the following scale: 0=no response, 1=wild running, 2=clonus, 3=tonic flexor and/or extensor; 4=respiratory arrest, on the basis of the concordant opinion of the observers. […] The maximum response is recorded for each animal. Rectal temperature is recorded immediately prior to auditory testing using an Elektrolaboratoriet thermometer type T.E.3. Behavioral changes are observed during the period between drug administration and auditory testing. In these experiments separate vehicle-treated and drug-treated groups are used at each pretreatment time (15 min-60 min). Percentage of mice showing wild running, clonic or tonic phase and the duration of anticonvulsant activity are compared to control group and statistically analyzed.

The target of series [3] is T1, 5-HT1A (Rattus norvegicus, UniProt P19327).
T1 construct: from tissue; host or cells: whole animal (in vivo behavioural test)
T1 sequence (P19327 whole entry): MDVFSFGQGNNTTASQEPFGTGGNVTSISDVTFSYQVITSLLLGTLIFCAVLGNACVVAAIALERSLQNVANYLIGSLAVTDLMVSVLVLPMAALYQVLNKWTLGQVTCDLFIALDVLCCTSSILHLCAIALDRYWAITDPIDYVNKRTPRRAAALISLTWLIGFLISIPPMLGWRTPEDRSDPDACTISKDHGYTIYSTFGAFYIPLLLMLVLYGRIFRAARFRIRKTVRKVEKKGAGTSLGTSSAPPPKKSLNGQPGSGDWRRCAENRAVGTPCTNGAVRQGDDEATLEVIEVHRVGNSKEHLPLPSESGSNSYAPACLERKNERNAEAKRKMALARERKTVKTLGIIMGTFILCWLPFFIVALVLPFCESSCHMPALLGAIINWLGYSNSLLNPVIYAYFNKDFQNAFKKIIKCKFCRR
Put plainly: In vivo 5-HT1A agonism: lower lip retraction (LLR). The conditions noted are these: 60 minutes after oral administration. Here is the method: Lower lip retraction was measured according to the method described by Berendsen et al., (Pharmacol. Biochem. Behav. 33, (1989), 821-827).

The mark [4] stands for this setting: i.p. administration, read-out: ED50 Clonic seizures.
The mark [5] stands for this setting: i.p. administration, read-out: ED50 Wild running.
The mark [6] stands for this setting: i.p. administration, read-out: ED50 Tonic extension.

Consider `CCCN(CCC)C1CCc2cccc(O)c2C1` (centres unmarked) [Compound 8-OH-DPAT, 8-hydroxy-2-(di-n-propylamino)tetralin], for which the “effect on tonic phase of audiogenic seizures” value in series [1] (0.3, 1, 3, 10 mg/kg) was “did not significantly antagonized”; in series [1] (15 and 20 mg/kg) it was “able to significantly (P<0.01 and P<0.05) antagonize”. Further, in series [1] (0.3, 1, 3, 10, 15 and 20 mg/kg), the “effect on clonic phase of audiogenic seizures” value was “did not significantly antagonized”. Moreover, the ED50 in series [1] (read-out: ED50 Tonic extension, i.p. administration) was 15 mg/kg; in series [1] (setting [4]), more than 20 mg/kg; in series [1] (setting [5]), more than 20 mg/kg. Moreover, in series [1] (i.p. administration), the behavioural changes result is reported as “At none of the dosages tested”.

For the molecule `Cc1cccc(S(=O)(=O)N2CCC[C@@H]2CCN2CCC(C)CC2)c1` [SB258741], the “effect on tonic phase of audiogenic seizures” value in series [1] (15 mg/kg) is recorded as “able to significantly (P<0.01) antagonize”. The “effect on clonic phase of audiogenic seizures” value in series [1] (1, 3, 10 and 15 mg/kg) is given as “did not significantly antagonize”. The ED50 was more than 15 mg/kg in series [1] (setting [4]), approximately 12 mg/kg in series [1] (setting [6]) and more than 15 mg/kg in series [1] (setting [5]). In addition, the behavioural changes entry in series [1] (i.p. administration) was “At none of the dosages tested”. In addition, the “effect of pre-treatment on the anti-epileptic activity (dose-response curve) of Compound 1” value in series [2] is “shift the dose-response curve of COMPOUND 1 to the right; also recorded: partly antagonized”.

As to `O=C(NCCN1CCN(c2cccc3c2OC[C@H](CO)O3)CC1)c1ccc(F)cc1` [flesinoxan], the “effect on tonic and clonic phase of audiogenic seizures” value was “did not significantly antagonized” in series [1] (0.3, 1, 3, 5 and 7,5 mg/kg); “able to significantly (P<0.0.1) antagonize” in series [1] (10 and 15 mg/kg). In addition, the ED50 in series [1] (setting [4]) is 9.37 mg/kg; in series [1] (setting [6]), 7.74 mg/kg; in series [1] (setting [5]), more than 15 mg/kg; in series [3] it was 0.22 mg/kg. Moreover, the behavioural changes result in series [1] (i.p. administration) is listed as “At none of the dosages tested”.

Take `CNS(=O)(=O)Cc1ccc2[nH]cc(CCN(C)C)c2c1` [sumatriptan, reference compound]: in series [2] (5 min before), the “potency in shifting the dose-response curve of Compound 1, compared” value is listed as “more potent than SB 258741”. Also, the “effect of pre-treatment on the anti-epileptic activity (dose-response curve) of Compound 1” value in series [2] is recorded as “shift the dose-response curve of COMPOUND 1 to the right; also recorded: partly antagonized”.
